Laboratory results as given in PMC7696940, “Effects of Rationally Designed Physico-Chemical Variants of the Peptide PuroA on Biocidal Activity towards Bacterial and Mammalian Cells” (International Journal of Molecular Sciences, 2020).
Values after ≈ are worked out from the molar mass of the structure shown. Where no end group is shown, it is not given here.

Columns and labels:
HeLa cells = type: cell-based, human; details: MTT, 24 h, peptide up to 250 µg/mL; concentration causing 50% cell growth inhibition; mean of triplicate assays
Method: (§1) Cytotoxicity to human cervical carcinoma HeLa cells and mouse fibroblastic NIH-3T3 cells was determined using the MTT assay as per Scudiero et al. with minor modifications. The cells were maintained in Dulbecco’s Modified Eagle Medium (DMEM) with 10% foetal bovine serum (FBS) and 1% penicillin G in a humidified incubator (Heraeus Hera Cell incubator) at 37 °C with 5% CO2. They were seeded in 96-well microtiter plates at 1 × 10^4 cells/well and allowed to adhere for 24 h in the incubator. The medium was removed, and adherent cells were washed with PBS. Fresh media containing serially diluted peptides in PBS (final concentrations 4 to 250 µg/mL) were added and the cells incubated for 24 h. Cells without peptides were used as negative controls. Following incubations, the medium was removed, and adherent cells were washed with PBS. 150 µL of MTT (diluted to 0.33 mg/mL in DMEM) and the plates incubated for 3 h. The precipitated formazan was dissolved in 100 µL of DMSO and its absorbance measured at 570 nm. Cell viability was determined as: (OD570 nm peptide treated cells/(OD570 nm untreated cells) × 100. Positive cytotoxicity was defined as peptide concentration that causes 50% growth inhibition in a cell line (IC50). All tests were carried out in triplicate.

NIH-3T3 cells = test: Cytotoxicity, MTT assay; type: cell-based, mouse; details: 24 h; for IC50 NIH-3T3: peptide up to 250 µg/mL, concentration causing 50% cell growth inhibition, mean of triplicate assays
Method: as §1

MRSA M173525 biofilm = test: Inhibition of preformed 6 h biofilm (CV and MTT assays); type: cell-based, methicillin-resistant Staphylococcus aureus; details: 37 °C, triplicate
Method: The effects of PuroA and other selected peptides (based on their antibacterial activity) on both the initial cell attachment and 6 h preformed biofilms of MRSA on polystyrene were tested as described by Jadhav et al., at their respective 0.5 × MIC, 1 × MIC, and 2 × MIC concentrations. All tests were conducted in triplicate. For testing the inhibition of initial cell attachment, 100 μL of peptide solutions were added to the microtitre plates, then mixed with 100 μL of M173525 cell suspension (1 × 10^6 CFU/mL, cultured in tryptic soy broth medium (TSB; Oxoid) containing 1% glucose), or 100 μL of sterile MilliQ water as negative control. The plates were incubated at 37 °C for 24 h to allow cell attachment. The biofilm formation was then assessed using CV and MTT assays. […] Peptide solutions (100 μL) were then added, the plates incubated at 37 °C for 1 h and the biofilms assessed.
The assay works as an indicator of attached living and non-living biomass. Indirect assessment of cell attachment of MRSA was estimated using the modified CV assay as per Jadhav et al.. After incubations of the plates (for 24 h or 1 h, as above), the culture medium from each well was removed gently and any non-adherent bacteria removed by washing the plates five times with sterile distilled water (dH2O). The plates were air-dried, then oven-dried at 60 °C for 1 h. The biofilm cells in the wells were stained with 100 μL of 1% CV and incubated for 15 min at room temperature. Excess stain was removed by washing the plates three times with sterile dH2O. Ethanol (95%, 125 µL) was transferred to each well to de-stain the cells. The de-staining solution from each well was then transferred to a new plate and its absorbance measured at 595 nm. The percentage inhibition of biomass formation concentration was calculated as: ((OD595 nm control well without peptide − OD5 95 well with peptide)/OD595 nm control well without peptide) × 100. All tests were conducted in triplicate.
A modified methylthiazotetrazolium (MTT) (3-[4,5-dimethyl thiazol-2-yl]-2, 5-diphenyltetrazolium bromide) reduction assay was used, wherein the blue product (MTT salt reduced to formazan by dehydrogenases) is taken as a respiratory indicator of live cells. Briefly, MTT (Sigma-Aldrich, Gillingham, UK) was dissolved in PBS to 5 mg/mL. After incubations of plates (for 24 h or 1 h, as above), the culture medium was gently removed and the plates air-dried. PBS (100 μL) and MTT (5 µL, 5 mg/mL) were added to each well and the plates incubated for 3 h at 37 °C. The insoluble purple product was dissolved in 100 µL of dimethyl sulphoxide (DMSO, Sigma-Aldrich, Gillingham, UK) and the absorbance measured at 570 nm. The % inhibition of metabolic activity was calculated as: ((OD570 nm control well without peptide − OD570 nm well with peptide)/OD570 nm control well without peptide) × 100. All tests were conducted in triplicate.

[1] = tested on: porcine trypsin and proteinase K; test: Proteases stability assay; type: in vitro ADME, porcine; Tritirachium album; details: 1000 µg peptide with 50 µg protease (20:1 w/w), porcine trypsin or proteinase K, PBS pH 7.4, 37 °C, 3 h; read-out activity of supernatant on E. coli and S. aureus; triplicate
Method: The effect of two well-studied proteases, porcine trypsin and proteinase K from Tritirachium album, on the activity of peptides was investigated as per Carmona et al.. Briefly, 1000 µg of a peptide was incubated with 50 µg of a protease (20:1 w/w) at 37 °C for 3 h in phosphate buffered saline PBS (pH 7.4). The enzyme activity was then terminated by heating (70 °C, 5 min) and the samples centrifuged at 12,000× g. The activity of the supernatant on E. coli and S. aureus was tested as above, in triplicate.

CC(C)[C@H](NC(=O)[C@@H]1CCCN1C(=O)[C@@H](N)Cc1ccccc1)C(=O)N[C@H](C(=O)N[C@@H](Cc1c[nH]c2ccccc12)C(=O)N[C@@H](CCCNC(=N)N)C(=O)N[C@@H](Cc1c[nH]c2ccccc12)C(=O)N[C@@H](Cc1c[nH]c2ccccc12)C(=O)N[C@@H](CCCCN)C(=O)N[C@@H](Cc1c[nH]c2ccccc12)C(=O)N[C@@H](Cc1c[nH]c2ccccc12)C(=O)N[C@@H](CCCCN)C(=O)NCC(N)=O)[C@@H](C)O [PuroA]
IC50 HeLa (HeLa cells): >250 µg/mL | IC50 NIH-3T3 (NIH-3T3 cells): 250 µg/mL (≈ 134 µM) | % Inhibition of Preformed 6 h MRSA Biofilm after 1 h Incubation, CV (MRSA M173525 biofilm; 0.5 × MIC): 68 ± 9.2% | % Inhibition of Preformed 6 h MRSA Biofilm after 1 h Incubation, MTT (MRSA M173525 biofilm; 0.5 × MIC): 90 ± 2.5% | % Inhibition of Preformed 6 h MRSA Biofilm after 1 h Incubation, CV (MRSA M173525 biofilm; 1 × MIC): 75 ± 7.5% | % Inhibition of Preformed 6 h MRSA Biofilm after 1 h Incubation, MTT (MRSA M173525 biofilm; 1 × MIC): 92 ± 4.0% | % Inhibition of Preformed 6 h MRSA Biofilm after 1 h Incubation, CV (MRSA M173525 biofilm; 2 × MIC): 77 ± 7.0% | % Inhibition of Preformed 6 h MRSA Biofilm after 1 h Incubation, MTT (MRSA M173525 biofilm; 2 × MIC): 95 ± 2.6% | Protease Stability [1]: Unstable

RKRWWRWWKWWKR-NH2 [Peptide P1]
IC50 HeLa (HeLa cells): 32 µg/mL | IC50 NIH-3T3 (NIH-3T3 cells): 250 µg/mL | % Inhibition of Preformed 6 h MRSA Biofilm after 1 h Incubation, CV (MRSA M173525 biofilm; 0.5 × MIC): 70 ± 6.9% | % Inhibition of Preformed 6 h MRSA Biofilm after 1 h Incubation, MTT (MRSA M173525 biofilm; 0.5 × MIC): 93 ± 5.0% | % Inhibition of Preformed 6 h MRSA Biofilm after 1 h Incubation, CV (MRSA M173525 biofilm; 1 × MIC): 74 ± 5.8% | % Inhibition of Preformed 6 h MRSA Biofilm after 1 h Incubation, MTT (MRSA M173525 biofilm; 1 × MIC): 95 ± 3.8% | % Inhibition of Preformed 6 h MRSA Biofilm after 1 h Incubation, CV (MRSA M173525 biofilm; 2 × MIC): 78 ± 3.1% | % Inhibition of Preformed 6 h MRSA Biofilm after 1 h Incubation, MTT (MRSA M173525 biofilm; 2 × MIC): 95 ± 4.0% | Protease Stability [1]: Unstable

WRWWKWW-NH2 [Peptide W7]
IC50 HeLa (HeLa cells): 250 µg/mL | IC50 NIH-3T3 (NIH-3T3 cells): 250 µg/mL | % Inhibition of Preformed 6 h MRSA Biofilm after 1 h Incubation, CV (MRSA M173525 biofilm; 0.5 × MIC): 67 ± 6.0% | % Inhibition of Preformed 6 h MRSA Biofilm after 1 h Incubation, MTT (MRSA M173525 biofilm; 0.5 × MIC): 88 ± 2.5% | % Inhibition of Preformed 6 h MRSA Biofilm after 1 h Incubation, CV (MRSA M173525 biofilm; 1 × MIC): 75.5 ± 3.0% | % Inhibition of Preformed 6 h MRSA Biofilm after 1 h Incubation, MTT (MRSA M173525 biofilm; 1 × MIC): 90 ± 4.7% | % Inhibition of Preformed 6 h MRSA Biofilm after 1 h Incubation, CV (MRSA M173525 biofilm; 2 × MIC): 75 ± 5.5% | % Inhibition of Preformed 6 h MRSA Biofilm after 1 h Incubation, MTT (MRSA M173525 biofilm; 2 × MIC): 94 ± 0.5% | Protease Stability [1]: Unstable

WWRWWKWW-NH2 [WW]
IC50 HeLa (HeLa cells): 250 µg/mL | IC50 NIH-3T3 (NIH-3T3 cells): >250 µg/mL | Cytotoxicity to NIH-3T3 mouse fibroblasts (in words) (NIH-3T3 cells; up to 250 µg/mL): no cytotoxicity | % Inhibition of Preformed 6 h MRSA Biofilm after 1 h Incubation, CV (MRSA M173525 biofilm; 0.5 × MIC): 69 ± 7.8% | % Inhibition of Preformed 6 h MRSA Biofilm after 1 h Incubation, MTT (MRSA M173525 biofilm; 0.5 × MIC): 91 ± 3.0% | % Inhibition of Preformed 6 h MRSA Biofilm after 1 h Incubation, CV (MRSA M173525 biofilm; 1 × MIC): 71 ± 4.5% | % Inhibition of Preformed 6 h MRSA Biofilm after 1 h Incubation, MTT (MRSA M173525 biofilm; 1 × MIC): 92 ± 3.5% | % Inhibition of Preformed 6 h MRSA Biofilm after 1 h Incubation, CV (MRSA M173525 biofilm; 2 × MIC): 74 ± 2.0% | % Inhibition of Preformed 6 h MRSA Biofilm after 1 h Incubation, MTT (MRSA M173525 biofilm; 2 × MIC): 95 ± 1.7% | Protease Stability [1]: Unstable
